# Columns and labels:
# mouse RORγ = molecular target: T1, mouse RORγ (Mus musculus, UniProt P51450); assay: Luciferase reporter gene assay of inhibitory effect against RORγ transcriptional activity (GAL4-mRORγ plasmid in CHO cells); type: cell-based; settings: read-out: LUC EC50 (μM) mRORg
# T1 construct: mouse, NM_011281.2 and from Ile251 to Lys516; expressed in transfected cells; host or cells: CHO cells (transient co-transfection with pG5-Luc reporter)
# T1 sequence (P51450 251-516): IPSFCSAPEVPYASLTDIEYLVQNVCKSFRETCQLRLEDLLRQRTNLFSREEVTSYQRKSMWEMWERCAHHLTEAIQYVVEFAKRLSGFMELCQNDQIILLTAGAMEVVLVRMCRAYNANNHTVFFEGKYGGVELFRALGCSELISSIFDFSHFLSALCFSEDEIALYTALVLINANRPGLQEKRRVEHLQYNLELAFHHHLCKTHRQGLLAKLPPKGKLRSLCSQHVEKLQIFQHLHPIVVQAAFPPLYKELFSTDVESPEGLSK
# Procedure, shortened: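 Readout is intracellular luciferase after 2-day compound exposure (8 concentrations, 0.1% DMSO) in CHO cells expressing GAL4 fused to mouse RORγ LBD residues Ile251–Lys516 plus pG5-Luc reporter. EC50 fitted from %-of-control; points showing resazurin-detected cytotoxicity dropped.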
# human RORγ = molecular target: T2, human RORγ (Homo sapiens, UniProt P51449); assay: Luciferase reporter gene assay of inhibitory effect against RORγ transcriptional activity (GAL4-hRORγ plasmid in CHO cells); type: cell-based; settings: read-out: LUC EC50 (μM) hRORg
# T2 construct: human, NM_005060.3 and from Ser253 to Lys518; expressed in transfected cells; host or cells: CHO cells (transient co-transfection with pG5-Luc reporter)
# T2 sequence (P51449 253-518): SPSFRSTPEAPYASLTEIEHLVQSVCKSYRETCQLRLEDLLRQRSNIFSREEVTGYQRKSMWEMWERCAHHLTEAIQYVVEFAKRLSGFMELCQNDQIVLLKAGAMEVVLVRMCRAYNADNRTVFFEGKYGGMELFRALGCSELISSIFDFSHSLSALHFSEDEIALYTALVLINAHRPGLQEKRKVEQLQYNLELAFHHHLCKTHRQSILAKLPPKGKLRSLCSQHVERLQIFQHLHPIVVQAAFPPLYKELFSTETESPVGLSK
SMILES,EC50 (mouse RORγ) [µM],EC50 (human RORγ) [µM]
Cc1cccc(O)c1NC(=O)CCc1nnc(CCC(C)C)n1C1CC1 [Example F-104],> 3,> 3
CCCCc1nnc(CCC(=O)Nc2cccc(Cl)c2C)n1C1CC1 [Example F-105],> 3,> 3
Cc1noc(NC(=O)CCc2nnc(CCC(C)C)n2C2CC2)c1C [Example F-106],> 3,> 3
Cc1c(Cl)cccc1NC(=O)CCc1nnc(CC(C)C)n1C1CC1 [Example F-107],> 3,> 3
COc1ccc(CNC(=O)CCc2nnc(CCC(C)C)n2C2CC2)c(C)c1 [Example F-108],> 3,> 3
CC(C)CCc1nnc(CCC(=O)Nc2cc(F)cc(Cl)c2)n1C1CC1 [Example F-109],> 3,> 3
Cc1cccnc1CNC(=O)CCc1nnc(CCC(C)C)n1C1CC1 [Example F-110],> 3,> 3
Cc1cnccc1CNC(=O)CCc1nnc(CCC(C)C)n1C1CC1 [Example F-111],> 3,> 3
Cc1ccc(NC(=O)CCc2nnc(CCC3CCCCC3)n2C2CCC2)c(C)c1 [Example F-112],< 3,> 3
Cc1cc(O)ccc1CNC(=O)CCc1nnc(CCC(C)C)n1C1CC1 [Example F-114],> 3,> 3
CC(C)CCc1nnc(CCC(=O)NCc2cccc3[nH]cnc23)n1C1CC1 [Example F-115],> 3,> 3
Cc1ccccc1CCNC(=O)CCc1nnc(CCC(C)C)n1C1CC1 [Example F-116],> 3,> 3
Cc1cccc(CNC(=O)CCc2nnc(CCC(C)C)n2C2CC2)c1C [Example F-118],> 3,> 3
Cc1ccc(CNC(=O)CCc2nnc(CCC(C)C)n2C2CC2)c(C)c1 [Example F-119],< 3,< 3
Cc1c(Cl)cccc1NC(=O)CCc1nnc(CCCC(C)C)n1C1CC1 [Example F-120],< 3,< 3
CC(C)CCc1nnc(CCC(=O)NCc2ccccc2Cl)n1C1CC1 [Example F-121],> 3,> 3
CC(C)CCc1nnc(CCC(=O)NCc2ccc(Cl)cc2)n1C1CC1 [Example F-122],> 3,> 3
Cc1c(Cl)cccc1CNC(=O)CCc1nnc(CCC(C)C)n1C1CC1 [Example F-123],> 3,> 3
CCc1ccc(CNC(=O)CCc2nnc(CCC(C)C)n2C2CC2)cc1 [Example F-124],> 3,> 3
CCc1ccccc1CNC(=O)CCc1nnc(CCC(C)C)n1C1CC1 [Example F-125],> 3,> 3
Cc1c(F)cccc1CNC(=O)CCc1nnc(CCC(C)C)n1C1CC1 [Example F-126],> 3,> 3
COc1cccc(CNC(=O)CCc2nnc(CCC(C)C)n2C2CC2)c1C [Example F-127],> 3,> 3
CC(C)CCc1nnc(CCC(=O)NCc2cccc3[nH]ncc23)n1C1CC1 [Example F-128],> 3,> 3
CC(C)CCc1nnc(CCC(=O)NCc2ccc(C(F)(F)F)cc2)n1C1CC1 [Example F-129],> 3,> 3
CC(C)CCc1nnc(CCC(=O)NCc2ccccc2C(F)(F)F)n1C1CC1 [Example F-130],> 3,> 3
Cc1ccc(Cl)cc1NC(=O)CCc1nnc(CCC(C)C)n1C1CC1 [Example F-131],> 3,> 3
CCc1cccc(NC(=O)CCc2nnc(CCC(C)C)n2C2CC2)c1 [Example F-132],> 3,> 3

SMILES,EC50 (mouse RORγ) [µM],EC50 (human RORγ) [µM]
Cc1c(O)cccc1CNC(=O)CCc1nnc(CCC(C)C)n1C1CC1 [Example F-133],> 3,> 3
CC(C)CCc1nnc(CCC(=O)Nc2cnc3ccccn23)n1C1CC1 [Example F-134],> 3,> 3
Cc1c(Cl)cccc1NC(=O)CCc1nnc(C2CCCC(C)C2)n1C1CC1 (stereo not shown) [Example F-135],< 3,> 3
COCc1ccc(NC(=O)CCc2nnc(CCC(C)C)n2C2CC2)c(C)c1 [Example F-136],> 3,> 3
Cc1cc(F)ccc1NC(=O)CCc1nnc(CCC(C)C)n1C1CC1 [Example F-137],< 3,> 3
Cc1cc(Cl)ccc1NC(=O)CCc1nnc(CCC(C)C)n1C1CC1 [Example F-138],< 3,> 3
CC(C)CCc1nnc(CCC(=O)Nc2nnc3ccccn23)n1C1CC1 [Example F-139],> 3,> 3
Cc1ccc(Br)cc1NC(=O)CCc1nnc(CCC(C)C)n1C1CC1 [Example F-140],> 3,> 3
Cc1ccc(NC(=O)CCc2nnc(CCC3CCCCC3)n2CC(F)(F)F)c(C)c1 [Example F-142],< 3,< 3
Cc1ccc(C#N)cc1NC(=O)CCc1nnc(CCC(C)C)n1C1CC1 [Example F-143],> 3,> 3
Cc1c(Cl)cccc1NC(=O)CCc1nnc(COC2CCCCC2)n1C1CC1 [Example F-144],< 3,< 3
CCc1cccc(NC(=O)CCc2nnc(CCC(C)C)n2C2CC2)c1C [Example F-147],< 3,> 3
COc1cc(C)ccc1CNC(=O)CCc1nnc(CCC(C)C)n1C1CC1 [Example F-148],< 3,< 3
Cc1ccc(CNC(=O)CCc2nnc(CCC(C)C)n2C2CC2)c(O)c1 [Example F-149],> 3,> 3
CC(C)CCc1nnc(CCC(=O)NCc2cccc3cn[nH]c23)n1C1CC1 [Example F-150],> 3,> 3
Cc1ccc(C(F)(F)F)cc1NC(=O)CCc1nnc(CCC(C)C)n1C1CC1 [Example F-151],> 3,> 3
Cc1ccc(C2CC2)cc1NC(=O)CCc1nnc(CCC(C)C)n1C1CC1 [Example F-152],> 3,> 3
CCCc1ccc(C)c(NC(=O)CCc2nnc(CCC(C)C)n2C2CC2)c1 [Example F-153],> 3,> 3
Cc1ccc(C(N)=O)cc1NC(=O)CCc1nnc(CCC(C)C)n1C1CC1 [Example F-154],> 3,> 3
Cc1c(NC(=O)CCc2nnc(CCC(C)C)n2C2CC2)cccc1C1CC1 [Example F-156],< 3,> 3
Cc1cc(C(N)=O)ccc1NC(=O)CCc1nnc(CCC(C)C)n1C1CC1 [Example F-157],> 3,> 3
Cc1c(Cl)cccc1NC(=O)CCc1nnc(C#CC(C)C)n1C1CC1 [Example F-158],< 3,> 3
Cc1cc(C#N)ccc1NC(=O)CCc1nnc(CCC(C)C)n1C1CC1 [Example F-161],> 3,> 3
Cc1c(Cl)cccc1NC(=O)CCc1nnc(CCOC(C)(C)C)n1C1CC1 [Example F-163],< 3,< 3
Cc1c(NC(=O)CCc2nnc(CCC(C)C)n2C2CC2)ccc(Cl)c1Cl [Example F-165],< 3,> 3
Cc1c(Cl)cccc1NC(=O)CCc1nnc(COCc2ccccc2)n1C1CC1 [Example F-166],< 3,> 3

# — patent US20160137639A1, “TRIAZOLE-ISOXAZOLE COMPOUND AND MEDICAL USE THEREOF” (JAPAN TOBACCO INC., priority 2012, published 2016)
